Consider eleven compounds from US12071411B2, “Inhibitors of HIF-2α and methods of use thereof” (ARCUS BIOSCIENCES, INC., priority 2021, dated 2024).

Assay [1] concerns the target T1, Biotin tagged HIF-2α protein containing PAS-B domain (240-350) (Homo sapiens, UniProt Q99814).
T1 construct: Biotin tagged HIF-2α protein containing PAS-B domain (240-350) was prepared and purified in-house; made in house
The assay can be described thus: HIF-2α Scintillation Proximity Assay (SPA) binding assay. Particulars: 50 nM HIF-2α protein, 25 nM 3H-tracer, 2% DMSO. How it is done: HIF-2α Scintillation Proximity Assay (SPA) Binding Assay:
Biotin tagged HIF-2α protein containing PAS-B domain (240-350) was prepared and purified in-house.
Compounds solubilized in DMSO were dispensed into a white 384-well polystyrene non-binding flat clear bottom plate (Greiner Bio-One, Cat #781903) using an HP D300 dispenser. Ten microliters of biotinylated HIF-2α protein in buffer (25 mM Tris-HCl, pH 7.4, 150 mM NaCl, 0.15% BSA and 0.001% Tween 20) was added to the compound wells and allowed to incubate for 1 hour at room temperature. Ten microliters of SPA bead mix were added to the wells and incubated for an additional 45 minutes, followed by 10 ul of ^3H-tracer solution. Final assay conditions comprised 50 nM HIF-2α protein, 25 nM radiolabeled tracer and 3 ug beads per well with compounds in 2% DMSO. The plate was read using a MicroBeta Microplate Counter (PerkinElmer) for luminescence detection. The IC50 values of the test compounds were determined from compound dose response curves fitted using a standard four parameter fit equation and are reported in Table 2.
Background: SPA uses beads or plates that emit light when radiolabelled molecules are held near them.

The target of assay [2] is T2, HIF-2α (Homo sapiens, UniProt Q99814). Description: HIF-2α Luciferase Reporter Assay (serum), HRE-luciferase 786-0 cells in 100% human serum. The settings on record: for IC50: 100% human serum, 786-0 reporter cells, overnight incubation, read-out: Serum Potency; for Serum Shift (approximate): ratio of IC50 in 100% serum to IC50 in serum free conditions. The format is cell-based. In short, it runs like this: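 786-0 cells stably expressing an HRE-luciferase reporter were plated and rested 3 h. They were then treated overnight at 37 °C with compound diluted in 100% human serum. Serum was replaced with Opti-MEM, ONE-Glo luminescence was read, and IC50 came from a 4-parameter logistic fit.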
T2 sequence (Q99814 whole entry): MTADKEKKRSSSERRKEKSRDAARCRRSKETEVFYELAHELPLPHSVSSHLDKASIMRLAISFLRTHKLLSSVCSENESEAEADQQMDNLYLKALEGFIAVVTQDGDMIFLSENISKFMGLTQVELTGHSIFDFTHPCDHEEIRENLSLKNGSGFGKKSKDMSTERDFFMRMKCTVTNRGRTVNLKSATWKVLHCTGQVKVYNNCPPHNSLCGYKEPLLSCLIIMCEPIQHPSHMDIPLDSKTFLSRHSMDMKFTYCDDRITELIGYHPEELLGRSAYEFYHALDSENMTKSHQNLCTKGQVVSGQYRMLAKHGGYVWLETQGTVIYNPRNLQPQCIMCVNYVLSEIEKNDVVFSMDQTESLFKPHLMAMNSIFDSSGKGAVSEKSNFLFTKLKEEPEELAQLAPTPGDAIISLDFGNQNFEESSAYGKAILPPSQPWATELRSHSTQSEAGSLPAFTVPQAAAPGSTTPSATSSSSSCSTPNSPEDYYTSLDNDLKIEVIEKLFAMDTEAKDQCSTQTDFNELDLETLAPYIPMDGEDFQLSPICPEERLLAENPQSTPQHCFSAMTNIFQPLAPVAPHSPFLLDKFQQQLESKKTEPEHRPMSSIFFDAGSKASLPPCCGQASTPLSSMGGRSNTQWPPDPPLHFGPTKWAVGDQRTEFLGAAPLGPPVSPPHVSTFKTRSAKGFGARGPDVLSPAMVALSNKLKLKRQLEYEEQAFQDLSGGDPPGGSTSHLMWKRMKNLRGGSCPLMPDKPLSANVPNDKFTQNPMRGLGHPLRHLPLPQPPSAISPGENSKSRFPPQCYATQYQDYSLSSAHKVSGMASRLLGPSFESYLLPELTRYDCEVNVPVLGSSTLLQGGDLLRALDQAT
(A reporter such as luciferase makes a cellular process visible.)

In assay [3] the target is T2, HIF-2α. The assay can be described thus: HIF-2α Luciferase Reporter Assay (serum free) in HIF-Luc-786-0 cells. The format is cell-based. Particulars: Opti-MEM, 786-0 reporter cells, 20 hours incubation. Summed up:
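786-0 cells stably transduced with HIF luciferase reporter, 20,000 cells/well in serum-free Opti-MEM, compounds (50 uM downward, 1% DMSO) 20 h at 37 °C. ONE-Glo luminescence normalized to DMSO and no-cell controls; IC50 from four-parameter fit.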

T1 sequence (Q99814 240-350): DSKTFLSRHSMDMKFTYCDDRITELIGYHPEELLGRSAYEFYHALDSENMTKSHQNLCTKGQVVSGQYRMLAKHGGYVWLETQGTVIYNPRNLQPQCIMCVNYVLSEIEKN

Turning to `O[C@H]1c2c(C(F)(F)F)nn(CCC3CC3(F)F)c2CC1(F)F` (stereo partly drawn) [Example 58, (4S)-1-[2-(2,2-difluorocyclopropyl)ethyl]-5,5-difluoro-3-(trifluoromethyl)-4,6-dihydrocyclopenta[c]pyrazol-4-ol], the IC50 in assay [1] was less than 0.1 µM; on HIF-2α [2] it was 0.1 to 1 µM; on HIF-2α [3] it was less than 0.1 µM. Moreover, the “Serum Shift (approximate)” value on HIF-2α [2] stood at 3.

`O=S1(=O)CC(Cn2nc(C(F)(F)F)c3c2CCC(F)(F)[C@H]3O)C1` [Example 46, (4S)-1-[(1,1-dioxothietan-3-yl)methyl]-5,5-difluoro-3-(trifluoromethyl)-6,7-dihydro-4H-indazol-4-ol]: the IC50 (in assay [1]; at HIF-2α [2]; against HIF-2α [3]) was 0.1 to 1 µM each time. Further, at HIF-2α [2], the “Serum Shift (approximate)” value is 2.

Turning to `CC(F)(F)CCn1nc(C(F)(F)F)c2c1CCC(F)(F)[C@H]2O` [Example 32, (4S)-1-(3,3-difluorobutyl)-5,5-difluoro-3-(trifluoromethyl)-6,7-dihydro-4H-indazol-4-ol], the IC50 is 0.1 to 1 µM in assay [1], 0.1 to 1 µM on HIF-2α [2] and less than 0.1 µM against HIF-2α [3]. At HIF-2α [2], the “Serum Shift (approximate)” value amounted to 10.

As to `CS(=O)(=O)CCn1nc(C(F)(F)F)c2c1CCC(F)(F)[C@H]2O` [Example 42, (4S)-5,5-difluoro-1-(2-methylsulfonylethyl)-3-(trifluoromethyl)-6,7-dihydro-4H-indazol-4-ol], the figures for the IC50 (in assay [1]; on HIF-2α [2]; against HIF-2α [3]) were 0.1 to 1 µM, greater than 1 µM and 0.1 to 1 µM, respectively. Moreover, on HIF-2α [2], the “Serum Shift (approximate)” value is recorded as 6.

For the compound `O[C@H]1c2c(C(F)(F)F)nn(CC3CC3(F)F)c2CCC1(F)F` (single isomer, unassigned) [23/24 DIAST-1], the IC50 in assay [1] is 0.1 to 1 µM; on HIF-2α [2], greater than 1 µM; at HIF-2α [3], 0.1 to 1 µM. Also, the “Serum Shift (approximate)” value at HIF-2α [2] is listed as 6.

For the compound `O[C@H]1c2c(C(F)(F)F)nn(CCCC(F)F)c2CCC1(F)F` [Example 31, (4S)-1-(4,4-difluorobutyl)-5,5-difluoro-3-(trifluoromethyl)-6,7-dihydro-4H-indazol-4-ol], the IC50 in assay [1] is 0.1 to 1 µM; on HIF-2α [2], greater than 1 µM; at HIF-2α [3] it was 0.1 to 1 µM. Also, the “Serum Shift (approximate)” value at HIF-2α [2] is 7.

Take `CCCCn1nc(C(F)(F)F)c2c1CCC(F)(F)[C@H]2O` [Example 39, (4S)-1-butyl-5,5-difluoro-3-(trifluoromethyl)-6,7-dihydro-4H-indazol-4-ol]: the IC50 is 0.1 to 1 µM in assay [1], greater than 1 µM on HIF-2α [2] and 0.1 to 1 µM against HIF-2α [3]. In addition, the “Serum Shift (approximate)” value on HIF-2α [2] was greater than 39.

With `O[C@H]1c2c(C(F)(F)F)nn(CCCC(F)(F)F)c2CCC1(F)F` [Example 41, (4S)-5,5-difluoro-1-(4,4,4-trifluorobutyl)-3-(trifluoromethyl)-6,7-dihydro-4H-indazol-4-ol], the IC50 is less than 0.1 µM in assay [1], 0.1 to 1 µM at HIF-2α [2] and less than 0.1 µM against HIF-2α [3]. For the same compound, the “Serum Shift (approximate)” value at HIF-2α [2] came to 12.

With `O[C@H]1c2c(C(F)(F)F)nn(CCC3CC3(F)F)c2CCC1(F)F` (stereo partly drawn) [Example 20, (4S)-1-[2-(2,2-difluorocyclopropyl)ethyl]-5,5-difluoro-3-(trifluoromethyl)-4,5,6,7-tetrahydro-1H-indazol-4-ol], the IC50 in assay [1] is less than 0.1 µM; at HIF-2α [2], 0.1 to 1 µM; at HIF-2α [3], less than 0.1 µM. The “Serum Shift (approximate)” value on HIF-2α [2] amounted to 7.

Consider `O[C@H]1c2c(C(F)(F)F)nn(CCC3(F)COC3)c2CCC1(F)F` [Example 21, (4S)-5,5-difluoro-1-[2-(3-fluorooxetan-3-yl)ethyl]-3-(trifluoromethyl)-4,5,6,7-tetrahydro-1H-indazol-4-ol], for which the values for the IC50 (in assay [1]; on HIF-2α [2]; against HIF-2α [3]) were 0.1 to 1 µM, greater than 1 µM and 0.1 to 1 µM, respectively. The “Serum Shift (approximate)” value on HIF-2α [2] turned out to be 3.

Take `O[C@H]1c2c(C(F)(F)F)nn(CCSC(F)(F)F)c2CCC1(F)F` [Example 7, (4S)-5,5-difluoro-3-(trifluoromethyl)-1-[2-(trifluoromethylsulfanyl)ethyl]-6,7-dihydro-4H-indazol-4-ol]: the IC50 was less than 0.1 µM in assay [1], 0.1 to 1 µM on HIF-2α [2] and less than 0.1 µM against HIF-2α [3]. Moreover, the “Serum Shift (approximate)” value at HIF-2α [2] worked out at 5.
